Patent US7071190B2, “Inhibitors to tubulin polymerization” (Rigel Pharmaceuticals, Inc., priority 2002, dated 2006)
pIC50: −log10 of the molar value.

How the values were obtained:
[1] = test system: A549 cells; test: Bromodeoxyuridine (BrdU) proliferation assay; format: cell-based, human; conditions: for pIC50: Homo sapiens, A549, 48 h, BrdU ELISA 48 hours after addition of compound, tested 0.03-10 uM, cell line not given (A549 method; SW-480 and MDA-MB-231 also used), read-out: Assay Result (IC50μM); for Activity ranking: most active compounds of the invention / Activity ranking: particularly active examples of the compounds of the invention: antiproliferative activity
Experimental: In order to determine the antiproliferative activity of microtubule inhibitors, A549 cells were plated in 96 well plates at 2000 cells/well 24 hours prior to the addition of a compound of the invention in 80 ul growth media (F12K, 10% FBS, Pen/Strep). Prior to addition to cells, compounds were solubilized in 100% DMSO to 5 mM and serially diluted in 6 semi-log steps in 100% DMSO. The diluted compounds were added to cells by two 15.8-fold dilution steps, the first being a dilution into a 23% ethanol/H2O mixture and the second being a dilution into growth media. Finally, these dilutions were followed by a 1:1 dilution onto cells. The resulting final solvent concentration was 0.2% DMSO/0.75% ethanol. Compounds were tested at final concentrations of 10, 3, 1, 0.3, 0.1 and 0.03 uM. Forty-eight hours after the addition of compound, the effects on cellular proliferation were measured using a cell proliferation BrdU ELISA (Roche Molecular Biochemicals, Cat.#1 669 915).

[2] = test system: MAP-rich tubulin protein from bovine brain; test: Tubulin polymerization turbidity assay (A340 over time); format: biochemical
Experimental: FIG. 1. Tubulin polymerization inhibitory activity of the compounds of the invention was assayed by following the turbidity of a tubulin-containing solution over time. Polymerization of tubulin generates microtubules, the presence of which increases the absorbance of the assay solution over time. Effective inhibition manifests as a reduction of rate of absorbance increase at 340 nanometers. (a) 10 μM of compounds 19, 39, 43, 54 and 62, as well as 10 μM nocodazole as a positive control and DMSO as a negative control. (b) 10 μM of compounds 1, 88, 95, and 54, as well as 10 μM as well a positive controls 1 and 2 and DMSO as a negative control. (c) 0.4, 2.0 and 10 μM compound 54 versus 0.4, 2.0 and 10 μM nocodazole as a positive control and DMSO as a negative control.
Measurement of the tubulin polymerization can be achieved using known methodologies. For example, assays for tubulin polymerization may be performed using a kit from Cytoskeleton (Denver, Colo.) and as described by Tahir, S. K., et al, (2001) Cancer Res., 61:5480–5.
The assay measures tubulin polymerization as an increase in turbidity (A340) over time. Assays for tubulin polymerization were performed using a kit from Cytoskeleton (Denver, Colo.) and as described by Tahir, S. K., et al, (2001) Cancer Res., 61: 5480–5, incorporated herein by reference, and as described below.
To determine the ability of the compounds to inhibit microtubule polymerization in vitro, the following protocol was followed: (i) 70 μl ice-cold MAP-rich tubulin protein from bovine brain (1.5 mg/ml final concentration) was added to polymerization buffer (80 mM PIPES pH6.8, 1 mM EGTA, 1 mM MgCl2, 1 mM GTP) in a quartz microcuvette; (ii) 0.7 μl of DMSO or 100X stock of control (nocodazole) or test compound (thienopyrimidine) in DMSO were added to the cuvette; (iii) the contents were mixed by pipefting gently; (iv) the polymerization reaction was initiated by placing the cuvette in pre-warmed (37° C.) cuvette holder in Beckman spectrophotometer; (v) the absorbance was monitored at 340 nm at 30 second intervals for 20 minutes. Tubulin polymerization result in increased turbidity in the reaction solution, which is registered as an increase in absorbance at 340 nm. Inhibitors of tubulin polymerization are detected by a reduction in the rate, the initial slope, and/or extent of the turbidity change (i.e., max. absorbance at 340 nm) in plots of ΔA340 versus time.

[3] = test system: A549 (lung) tumors; test: A549 (lung) human tumor xenograft in nude mice; format: in vivo, NCr nude (nu/nu) female mice
Text: A nude mouse/human carcinoma model was used to examine the effect of tubulin inhibitors on tumor growth and animal survival. Groups of immune deficient (nude) mice were implanted subcutaneously with suspensions of the human tumor lines A549 (lung) and SW480 (colon). When palpable tumors appeared and were of a preselected volume (approximately 40–150 mm^3), animals were subdivided into various treatment groups such that the variation in mean tumor volume of each group was within 10%. The animals were then treated daily with either control vehicle or Compound 1 administered by intraperitonel injection. Twice weekly, the volume of the tumors in each animal in each group was measured to gather information on tumor growth (volume) as a function of time. Systemic toxicity was assessed by measuring individual animal body weights, and toxicity was evaluated by examination of differences in body weight gain as a function of time. Tumor volumes and body weights were monitored for up to 35 days after the beginning of treatment.
Cell Lines: Human tumor lines A549 (lung) and SW480 (colon) were grown in cell culture medium (F-11) containing 10% Fetal Bovine Serum (FBS). The cells were kept at 37° C. in a humidified 5% CO2/air incubator. Antibiotics were not added to the medium.
NCr nude (nu/nu) female mice, age 3–4 weeks, were purchased from Taconic (Germantown, N.Y.). The animals were housed ten per cage in sterile filter-topped cages in ventilated cage racks and Microisolator™ cages. Upon arrival, they were quarantined for at least four working days before use. Temperature was maintained at 72±5° F. (19–24° C.) and relative humidity at 35–70%, and a 12-hour light/dark cycle was used. The mice were fed sterile, autoclavable, certified, Purina rodent chow ad libitum. Drinking water was also autoclaved.
After the animals were released from quarantine, the mice were injected subcutaneously in the right flank with either 5×10^6 A549 cells or 5×10^6 SW480 cells in complete medium at an injection volume of 0.1 ml. Tumor dimensions and body weights were measured two times per week. Vernier calipers were used to measure tumors in two planes, and tumor volume (V) was calculated as follows: V=(xy^2)/2,
The test articles were administered intraperitoneally generally at a dose level of 10 mg/kg. When the solubility of a molecule of the invention was relatively low, we used relatively higher levels of organic co-solvents for preparation of the dosing solution. The “vehicle” of the invention comprised of 7.1% ethanol/35.8% PEG400/57.1% phosphate buffer (v/v/v).
When the tumor volumes reached a predetermined size (mean tumor volume between about 40–150 mm^3), animals were added randomly to treatment groups of 12 mice each as follows: Animals were treated daily with the vehicle or Compound 1 (10 mg/kg), or with the positive control drug (Taxol) administered by intraperitoneal injection at the maximum tolerated dose of 20 mg/kg every fourth day, on Days 1, 4, 7, and 10.
The tumor volumes of the animals were monitored for evidence of shrinkage or growth delay for a period of up to 35 days after the start of treatment. Response to treatment was measured in two ways, depending on the tumor response to treatment. The first was the optimum T/C (%), calculated as follows: For each day the tumors were measured, the changes in median tumor volume (V) for each treated (T) and control (C) group were determined by subtracting the […] tumor volume on the first day of treatment (Day 0) from the median tumor volume on the specific observation day. These values were used to express a percent difference in size, [% T/C=(T/C)×100]. The minimum value is designated the optimum response to treatment. A value of 42% or less is considered active by National Cancer Institute (NCI) standards. […]

[4] = 10 μM compound, FIG. 1 (a), (b)

| Compound | pIC50 [1] | Activity ranking: most active compounds of the invention [1] | Activity ranking: particularly active examples of the compounds of the invention [1] | Inhibition of tubulin polymerization (reduction of rate of absorbance increase at 340 nanometers) [2, 4] | Inhibition of tubulin polymerization (reduction of rate of absorbance increase at 340 nanometers) ([2]; 0.4, 2.0 and 10 μM, FIG. 1 (c)) | Increase in tumor volume at 35 days normalized to tumor volume at start of drug treatment ([3]; A549 xenograft, 20 mg/kg intraperitoneal every fourth day (Days 1, 4, 7, 10), vehicle approximately 7-fold) [fold] | %T/C (mean tumor volume treated vs. control ×100) ([3]; A549 xenografts, 20 mg/kg intraperitoneal every fourth day) [%] |
| --- | --- | --- | --- | --- | --- | --- | --- |
| S=C(NNc1ncnc2cc(-c3ccccc3)sc12)NC1CC1 [Compound 19] | 7.05 | most active | particularly active | Inhibition activity is observed |  |  |  |
| Cc1cccc(-c2cc3ncnc(NNC(=S)NC4CC4)c3s2)c1 [Compound 39] | 7.41 | most active | particularly active | Inhibition activity is observed |  |  |  |
| S=C(NNc1ncnc2cc(-c3ccccc3Cl)sc12)NC1CC1 [Compound 43] | 6.36 | most active | particularly active | Inhibition activity is observed |  |  |  |
| Cc1cc(C)cc(-c2cc3ncnc(NNC(=S)NC4CC4)c3s2)c1 [Compound 54] | 7.80 | most active | particularly active | Inhibition activity is observed | Inhibition activity is observed |  |  |
| S=C(NCC1CC1)NNc1ncnc2cc(-c3ccccc3)sc12 [Compound 62] | 6.64 | most active | particularly active | Inhibition activity is observed |  |  |  |
| COCCNC(=S)NNc1ncnc2cc(-c3cccc(C)c3)sc12 [Compound 88] | 7.22 | most active | particularly active | Inhibition activity is observed |  |  |  |
| COCCNC(=S)NNc1ncnc2cc(-c3ccccc3Cl)sc12 [Compound 95] | 5.83 |  | particularly active | Inhibition activity is observed |  |  |  |
| COCCCNC(=S)NNc1ncnc2cc(-c3cc(C)cc(C)c3)sc12 [Compound 101] | 7.54 | most active | particularly active |  |  |  |  |
| COCCNC(=S)NNc1ncnc2cc(-c3ccc4c(c3)OCO4)sc12 [Compound 102] | 6.41 | most active | particularly active |  |  |  |  |
| S=C(NCC(c1ccccc1)c1ccccc1)NNc1ncnc2cc(-c3ccccc3)sc12 [Compound 105] | 5.09 |  | particularly active |  |  |  |  |
| CC(=O)O[C@H]1C(=O)[C@@]2(C)[C@H]([C@H](OC(=O)c3ccccc3)[C@]3(O)C[C@H](OC(=O)[C@H](O)[C@@H](NC(=O)c4ccccc4)c4ccccc4)C(C)=C1C3(C)C)[C@]1(OC(C)=O)CO[C@@H]1C[C@@H]2O [Taxol, reference compound] |  |  |  |  |  | 4 | 59 |
| COC(=O)Nc1nc2ccc(C(=O)c3cccs3)cc2[nH]1 [nocodazole, reference compound] |  |  |  | Inhibition activity is observed | Inhibition activity is observed |  |  |
